According to publication PMC10436493, “Unveiling the antitumor potential of novel N-(substituted-phenyl)-8-methoxycoumarin-3-carboxamides as dual inhibitors of VEGFR2 kinase and cytochrome P450 for targeted treatment of hepatocellular carcinoma” (Frontiers in Chemistry, 2023):
Where two headings read alike, the source gives them in different places. One block for each compound: values may come before it.

Legend:
[1] = test system: human liver carcinoma HepG2 cell line; assay: MTT cytotoxicity assay on liver cancer cells; assay type: cell-based; conditions: 24 h treatment
Experimental: Toward this, the HepG-2 cells were cultured and treated with tested compounds at different concentrations for 24 h and subsequently 3-(4,5-dimethylthiazol-2-yl)-2,5-diphenyltetrazolium bromide (MTT) dye was added. The colorimetric measurement was assessed using an ELISA plate reader at a wavelength of 570 nm.
Following this initial incubation period, the cells were exposed to varying concentrations of the synthesized compounds. The concentrations may have ranged from a lower to higher dose, depending on the experimental design. The molecules were dissolved in an appropriate solvent, DMSO, to obtain the desired concentrations. Control wells with no drug treatment were also included. […] The duration of the incubation may have varied depending on the specific experimental requirements. At the end of the 24-h treatment, (3-(4,5-dimethylthiazol-2-yl)-2,5-diphenyltetrazolium bromide) MTT dye was added to each well. MTT is a yellow tetrazolium salt that is utilized by metabolically active cells and converted into purple formazan crystals by mitochondrial enzymes in viable cells. […] DMSO is a common solvent used to dissolve the formazan crystals and extract the intracellular purple product. The plate was then subjected to colorimetric measurement using an ELISA plate reader at a wavelength of 570 nm. The intensity of the purple color is proportional to the number of viable cells and reflects the growth condition of the cells in each well. The results were analyzed by calculating the percentage of cell viability or cell growth inhibition compared to the control wells. […] The experiments were performed with at least three replicates for each concentration, and the entire experiment was repeated at least three times to ensure the reliability of the results.

HL-7702 normal cell line = assay: MTT cytotoxicity assay on normal liver cells; assay type: cell-based; conditions: Homo sapiens, L02, 24 h treatment
Experimental: Following this initial incubation period, the cells were exposed to varying concentrations of the synthesized compounds. The concentrations may have ranged from a lower to higher dose, depending on the experimental design. The molecules were dissolved in an appropriate solvent, DMSO, to obtain the desired concentrations. Control wells with no drug treatment were also included. […] The duration of the incubation may have varied depending on the specific experimental requirements. At the end of the 24-h treatment, (3-(4,5-dimethylthiazol-2-yl)-2,5-diphenyltetrazolium bromide) MTT dye was added to each well. MTT is a yellow tetrazolium salt that is utilized by metabolically active cells and converted into purple formazan crystals by mitochondrial enzymes in viable cells. […] DMSO is a common solvent used to dissolve the formazan crystals and extract the intracellular purple product. The plate was then subjected to colorimetric measurement using an ELISA plate reader at a wavelength of 570 nm. The intensity of the purple color is proportional to the number of viable cells and reflects the growth condition of the cells in each well. The results were analyzed by calculating the percentage of cell viability or cell growth inhibition compared to the control wells. […]

HepG-2 cells [2] = assay: Cell cycle analysis by DNA flow cytometry (PI staining); assay type: cell-based, human; conditions: HepG-2, compound at IC50 (0.75 µM), 24 h
Experimental: Based on this promising activity, compound 7 was selected for further evaluation to assess its effect on the cell cycle profile in HepG-2 cells. To evaluate the cell cycle, a biparametric cytofluorimetric analysis was conducted on HepG-2 cells treated with compound 7 at its IC50 concentration for a duration of 24 h. Propidium iodide (PI) was used as the staining agent for this analysis. (Figure 5). […] Similarly, the percentage of cells in the G2/M phase decreased from 11.46% in the control group to 6.4% after treatment with compound 7. In contrast, there was a notable increase in the percentage of cells in the S phase after treatment with Compound 7. […] These findings indicate that the treatment of HepG-2 cells with compound 7 leads to cell cycle arrest specifically in the S phase. This is evident from the decrease in the proportion of cells in the G1 and G2/M phases, accompanied by an increase in the percentage of cells residing in the S phase. Cell cycle arrest is a widely recognized mechanism utilized by anticancer agents to impede the excessive proliferation of cancer cells. By inducing cell cycle arrest, these agents disrupt the normal progression of the cell cycle, preventing cancer cells from dividing and multiplying uncontrollably. This therapeutic strategy helps to halt tumor growth and promotes the effectiveness of cancer treatments. The observed effects of compound 7 on the cell cycle profile of HepG-2 cells are indicative of its potential as an antitumor agent. […] Furthermore, the increase in the percentage of cells in the S phase upon treatment with Compound 7 may indicate DNA damage and activation of DNA repair mechanisms, which can contribute to the observed S phase arrest.
HepG-2 cells were seeded in […] at a density of 3.0 × 10^5 cells per well and incubated at 37°C for 12 h to allow cell attachment and growth. After the initial incubation, the cells were treated with compound 7 at its IC50 concentration dose value for 24 h. […] Flow cytometry analysis measures the fluorescence emitted by the cells stained with PI, which correlates with the DNA content. […]

HepG-2 cells [3] = assay: Annexin V-FITC/PI apoptosis assay; assay type: cell-based, human
Experimental: The Annexin V-FITC/PI assay is a well-established flow cytometric method to evaluate the apoptotic potential of bioactive compounds. The assay allows differentiation between apoptotic cells and live cells by using fluorescent dyes that bind to phosphatidylserine (PS) and DNA, respectively ([Galluzzi et al., 2018]; [Pfeffer and Singh, 2018]; [Tong et al., 2022]). In the present study, the assay was performed to explore the apoptotic effect of compound 7 (at its IC50 dose value) on HepG-2 cells. […] The Annexin V-FITC/PI assay is a well-established method to evaluate the apoptotic potential of chemical compounds. Inducing apoptosis is an appealing therapeutic approach for cancer treatment as it is a vital cellular process essential for preserving tissue balance and removing impaired or unnecessary cells. Disruption in the regulation of apoptosis can contribute to various diseases, such as cancer, highlighting its significance. […] The early stage of apoptosis is characterized by the translocation of PS from the inner to the outer leaflet of the plasma membrane, which can be detected by Annexin V-FITC staining. […] Further, the late stage of apoptosis is characterized by DNA fragmentation, which can be detected by PI staining. […] According to these findings, there is a notable connection between the ability of compound 7 to induce programmed cell death in HepG-2 cells and its antiproliferative effects.
The experimental method involved seeding HepG-2 cells at a density of 1.5 × 10^5 cells per well in a 6-well plate and incubating the cells for 12 h to allow for cell attachment and growth. Following this, the cells were treated with compound 7 at its IC50 concentration for 24 h to induce apoptosis. Apoptosis, a programmed cell death process, was detected by staining the cells with Annexin-V conjugated to fluorescein isothiocyanate (FITC) and Propidium Iodide (PI), and the stained cells were analyzed using a FACSCalibur cytometer and Cellquest software (BD Bioscience). Annexin-V is a protein that binds specifically to phosphatidylserine, a phospholipid that is externalized on the outer surface of the plasma membrane during early stages of apoptosis. FITC, a green-fluorescent dye conjugated to Annexin-V, is used to label the apoptotic cells. PI, a red-fluorescent DNA intercalating agent, is used to distinguish between apoptotic and necrotic cells based on their DNA content. The FACSCalibur cytometer is a flow cytometer used to analyze and quantify fluorescently labeled cells. The experimental method likely allowed for the quantification of apoptotic cells by analyzing the Annexin-V-FITC and PI staining patterns using flow cytometry. The results obtained from this method provided information on the induction of apoptosis by compound 7 in HepG-2 cells, further elucidating the mechanism of action of this compound as a potential anticancer agent. To ensure the reliability of the results, the experimental conditions were repeated at least three times, and the cells were exposed to therapeutically effective concentration of the compound, they were treated with compound 7 at a dose corresponding to its IC50 concentration. This ensured that the cells were subjected to an optimal concentration of the compound during the experiment. This experimental method yielded crucial information on the mechanism by which it exerts its anticancer effects.

VEGFR-2 = target: T1, VEGFR-2 (Homo sapiens, UniProt P35968); assay: VEGFR-2 ELISA assay; assay type: cell-based
T1 construct: ability to target the VEGFR-2 receptor inHep-G2 cells; endogenous in cells; host or cells: Hep-G2
T1 sequence (P35968 20-1356): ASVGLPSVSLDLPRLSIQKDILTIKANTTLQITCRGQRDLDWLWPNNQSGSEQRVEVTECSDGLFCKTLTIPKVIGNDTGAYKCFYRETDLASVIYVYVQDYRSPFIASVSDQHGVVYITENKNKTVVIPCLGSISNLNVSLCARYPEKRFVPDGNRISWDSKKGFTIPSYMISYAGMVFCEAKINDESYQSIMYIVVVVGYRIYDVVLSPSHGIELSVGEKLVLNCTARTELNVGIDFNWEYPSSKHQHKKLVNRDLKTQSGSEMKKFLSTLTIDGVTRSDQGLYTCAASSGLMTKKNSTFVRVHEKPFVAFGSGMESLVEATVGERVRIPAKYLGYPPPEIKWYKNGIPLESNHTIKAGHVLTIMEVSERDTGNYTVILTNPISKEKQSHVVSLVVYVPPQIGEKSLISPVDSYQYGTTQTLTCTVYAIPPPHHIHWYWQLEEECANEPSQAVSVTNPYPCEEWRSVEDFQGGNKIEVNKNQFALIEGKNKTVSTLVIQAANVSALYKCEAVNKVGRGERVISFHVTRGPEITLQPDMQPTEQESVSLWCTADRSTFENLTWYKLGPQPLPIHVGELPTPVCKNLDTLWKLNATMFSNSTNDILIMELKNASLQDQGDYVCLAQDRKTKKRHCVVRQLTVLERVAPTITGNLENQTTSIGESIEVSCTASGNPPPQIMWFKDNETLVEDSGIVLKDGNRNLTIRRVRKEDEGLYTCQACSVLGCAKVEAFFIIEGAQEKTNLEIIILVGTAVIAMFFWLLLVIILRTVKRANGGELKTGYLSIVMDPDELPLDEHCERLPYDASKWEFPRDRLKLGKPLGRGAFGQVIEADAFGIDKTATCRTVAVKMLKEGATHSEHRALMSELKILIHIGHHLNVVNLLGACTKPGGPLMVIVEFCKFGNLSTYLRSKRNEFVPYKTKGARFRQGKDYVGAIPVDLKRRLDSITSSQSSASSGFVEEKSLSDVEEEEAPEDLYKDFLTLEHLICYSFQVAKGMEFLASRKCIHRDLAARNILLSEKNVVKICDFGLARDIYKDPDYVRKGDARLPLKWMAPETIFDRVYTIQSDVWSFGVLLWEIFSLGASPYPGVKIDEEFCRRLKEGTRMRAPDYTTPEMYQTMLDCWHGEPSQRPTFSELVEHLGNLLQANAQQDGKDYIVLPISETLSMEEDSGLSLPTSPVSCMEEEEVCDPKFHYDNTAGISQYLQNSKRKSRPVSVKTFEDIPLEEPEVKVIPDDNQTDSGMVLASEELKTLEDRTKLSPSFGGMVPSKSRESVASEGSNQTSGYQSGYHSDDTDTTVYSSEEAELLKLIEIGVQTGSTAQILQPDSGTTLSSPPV
Experimental: A 96-well plate was used for the assay, and each well was filled with a specific volume of the tested molecules and standard concentrations. The wells were coated with an immobilized antibody that specifically binds to VEGFR-2. After incubation, the wells were washed to remove unbound molecules, and biotinylated anti-human VEGFR-2 antibody was added to the wells. This biotinylated antibody specifically binds to VEGFR-2 that is captured by the immobilized antibody. Following another round of washing, a solution of conjugated streptavidin, which binds to the biotinylated antibody, was added to the wells. […] During this incubation, the bound conjugated streptavidin transformed the substrate into a colorful product. After terminating the reaction with an inhibitor solution, the optical density of the produced color was instantly determined at 450 nm with a spectrophotometer.

CYP2D6 = CYP2D6 (Homo sapiens, UniProt P10635)
CYP2D6, sequence (P10635 whole entry): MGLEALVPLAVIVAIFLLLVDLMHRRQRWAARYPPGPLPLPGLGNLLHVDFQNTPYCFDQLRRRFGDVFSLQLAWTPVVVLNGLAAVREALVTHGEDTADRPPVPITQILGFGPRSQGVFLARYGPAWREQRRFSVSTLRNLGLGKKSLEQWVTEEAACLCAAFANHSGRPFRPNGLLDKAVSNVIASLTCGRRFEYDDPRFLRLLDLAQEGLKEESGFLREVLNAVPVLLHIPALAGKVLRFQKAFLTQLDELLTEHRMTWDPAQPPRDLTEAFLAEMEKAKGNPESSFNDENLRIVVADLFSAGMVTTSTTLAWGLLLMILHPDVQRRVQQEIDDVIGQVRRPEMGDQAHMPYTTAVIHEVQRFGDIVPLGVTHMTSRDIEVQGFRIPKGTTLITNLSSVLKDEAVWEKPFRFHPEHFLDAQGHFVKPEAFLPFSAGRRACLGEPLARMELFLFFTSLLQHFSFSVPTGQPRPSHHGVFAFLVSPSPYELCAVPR
Experimental: Human cells, obtained from the American Type Culture Collection (ATCC), were cultivated in RPMI medium (Invitrogen/Life Technologies). The medium was supplemented with 1% penicillin-streptomycin, 10 μg/ml of insulin (Sigma), and to support cell growth and 10% Fetal Bovine Serum (FBS) (Hyclone) viability. […] Cells were seeded into a 96-well plate at a density of 1.2–1.8 × 10,000 cells/well in a volume of 100 μL of complete growth medium. […] Each concentration was tested in triplicate. A control well with only complete growth medium was included as a negative control. […] The culture media was quickly withdrawn, and the cultured cells were rinsed with PBS. […] After the incubation, the fluorescence intensity of the converted product was measured using a FLx800™ Fluorescence Microplate Reader at the excitation wavelength of 390 nm and the emission wavelength of 488 nm. […] The data were analyzed for statistical significance and presented as mean ± standard deviation (SD) from triplicate measurements.

HepG-2 cells [4] = test system: HepG-2 cells; parameters: method as in Fayed et al., 2019; conditions: ref Fayed et al., 2019; read-out: IC50, cytotoxic activity against HepG-2 cells; cited from earlier work

melting point: 256 °C
SMILES: COc1cccc2cc(C(=O)Nc3cccc(O)c3)c(=O)oc12 [Compound 3, N-(3-hydroxy)-phenyl 8-methoxycoumarin-3-carboxamide]
IC50 [1]: 3.81 ± 0.16 µM

melting point: 289 °C
SMILES: COc1ccc(Br)c2cc(C(=O)Nc3cccc(O)c3)c(=O)oc12 [Compound 4, N-(3-hydroxy)phenyl 5-bromo-8-methoxycoumarin-3-carboxamide]
IC50 [1]: 38.3 ± 1.62 µM

SMILES: COc1ccc(Br)c2cc(C(=O)Nc3cccc(OC(C)=O)c3)c(=O)oc12 [Compound 6, N-(3-acetoxy)phenyl 5-bromo-8-methoxycoumarin-3-carboxamide]
IC50 [1]: 13.4 ± 0.56 µM
melting point: 205 °C

SMILES: COc1cccc2cc(C(=O)Nc3cccc(O)c3)c(=O)[nH]c12 [Compound 7, N-(3-hydroxy)phenyl 8-methoxy-azacoumarin-3-carboxamide]
IC50 [1]: 0.75 ± 0.03 µM
IC50 (HL-7702 normal cell line): 13.7 ± 1.8 µM
percentage of cells in the G2/M phase (HepG-2 cells [2]; untreated control 11.46%): 6.4%
percentage of cells in the S phase (HepG-2 cells [2]; untreated control 42.19%): 54.52%
percentage of cells in the G1 phase (HepG-2 cells [2]; untreated control 46.35%): 39.08%
fold increase of early apoptotic cells vs control (HepG-2 cells [3]; HepG-2, compound at IC50): 45 fold
fold increase of late apoptotic cells vs control (HepG-2 cells [3]; HepG-2, compound at IC50): 73 fold
fold increase of necrosis vs control (HepG-2 cells [3]; HepG-2, compound at IC50): 2.5 fold
fold increase of total apoptotic cells vs control (HepG-2 cells [3]; HepG-2, compound at IC50): 23 fold
percentage of apoptotic cells, late stage (HepG-2 cells [3]; HepG-2, compound at IC50 (0.75 µM), 24 h, control 0.21%): 15.34%
percentage of apoptotic cells, early stage (HepG-2 cells [3]; HepG-2, compound at IC50 (0.75 µM), 24 h, control 0.55%): 24.72%
VEGFR2 protein level (VEGFR-2; Hep-G2 cells, untreated 3,007 pg/mL): 1,086 pg/mL
IC50 (VEGFR-2; summary graph, read-out: Angiogensis inhibtion IC50 (Figure 10) (converted)): 110 µM
IC50 (CYP2D6): 110 µM
fold more potent than standard staurosporin toward CYP2D6 (CYP2D6): 2.1 fold

melting point: 255 °C
SMILES: COc1ccc(Br)c2cc(C(=O)Nc3cccc(O)c3)c(=O)[nH]c12 [Compound 8, N-(3-hydroxy)phenyl 5-bromo-8-methoxy-azacoumarin-3-carboxamide]
IC50 [1]: 4.79 ± 0.2 µM

SMILES: COc1ccc(-c2cc(-c3cc4ccccc4oc3=O)nc(NC(C)=O)c2C#N)cc1 [Compound 11]
IC50 (HepG-2 cells [4]): 4.5 µM

SMILES: CN[C@@H]1C[C@H]2O[C@@](C)([C@@H]1OC)n1c3ccccc3c3c4c(c5c6ccccc6n2c5c31)C(=O)NC4 [STU, staurosporine, reference compound]
IC50 (CYP2D6; human): 70.3 µg/mL
